Results: ChEMBL document CHEMBL1130089 (J Med Chem, 1997)
Activity calls are given as the source filed them. No cut-off for these calls is given here.

Key:
Estrogen receptor [1] = molecular target: T1, Estrogen receptor (Homo sapiens, UniProt Q92731+P03372); test: Agonist transcriptional activation in MVLN cells relative to 0.1 nM estradiol; type: functional, cell-based
Estrogen receptor [2] = molecular target: T1, Estrogen receptor; test: Compound concentration required to induce transcriptional activation in MVLN cells comparable to 50% of 0.1 nM estradiol response; type: functional, cell-based
Estrogen receptor [3] = molecular target: T1, Estrogen receptor
Description: Relative affinity constant for cytosolic estrogen receptor

Estrogen receptor [4] = molecular target: T1, Estrogen receptor; test: Compound concentration required to induce transcriptional activation in MVLN cells equal to 50% of 0.1 nM estradiol response; type: functional, cell-based
Estrogen receptor [5] = molecular target: T1, Estrogen receptor; test: Irreversible inhibition of [3H]estradiol binding to estrogen receptor; (-) indicates decrease in estradiol binding sites inactivated by the compound; type: protein assay
Estrogen receptor [6] = molecular target: T1, Estrogen receptor; remark: listed apart in the source

Row | Activity (Estrogen receptor [1]) [%] | EC50 (Estrogen receptor [2]) [nM] | RAC (Estrogen receptor [3]) | IC50 (Estrogen receptor [4]) [nM] | Covalent binding (Estrogen receptor [5]) | Structure (SMILES) | Covalent binding (Estrogen receptor [6])
1 | 80 | < 10 | 38.6 | – | – | C=CCC[C@H]1C[C@]2(C)[C@@H](O)CC[C@H]2[C@@H]2CCc3cc(O)ccc3[C@@H]12 | –
2 | – | – | 36.8 | 6 | inactive | C[C@]12C[C@H](CCCCOS(C)(=O)=O)[C@@H]3c4ccc(O)cc4CC[C@H]3[C@@H]1CC[C@@H]2O | –
3 | 95 | 6 | 8.15 | – | inactive | C[C@]12C[C@H](CCOS(C)(=O)=O)[C@@H]3c4ccc(O)cc4CC[C@H]3[C@@H]1CC[C@@H]2O | –
4 | – | – | 11 | 3 | inactive | C[C@]12C[C@H](CCCCBr)[C@@H]3c4ccc(O)cc4CC[C@H]3[C@@H]1CC[C@@H]2O | –
5 | 90 | 110 | 0.38 | – | inactive | C[C@]12C[C@H](CCNC(=O)CBr)[C@@H]3c4ccc(O)cc4CC[C@H]3[C@@H]1CC[C@@H]2O | –
6 | – | – | 1.64 | 320 | inactive | C[C@]12C[C@H](CCCCNC(=O)CBr)[C@@H]3c4ccc(O)cc4CC[C@H]3[C@@H]1CC[C@@H]2O | –

Row | Structure (SMILES) | Activity (Estrogen receptor [1]) [%] | EC50 (Estrogen receptor [2]) [nM] | RAC (Estrogen receptor [3]) | IC50 (Estrogen receptor [4]) [nM] | Covalent binding (Estrogen receptor [5]) | Covalent binding (Estrogen receptor [6])
7 | Cc1ccc(S(=O)(=O)OCCCCCCCCCC[C@H]2C[C@]3(C)[C@@H](O)CC[C@H]3[C@@H]3CCc4cc(O)ccc4[C@@H]23)cc1 | – | – | 2.59 | 4 | – | < 10
